Assay [1] deals with T1, Probable G-protein coupled receptor 139 (Homo sapiens, UniProt Q6DWJ6).
T1 sequence (Q6DWJ6 whole entry): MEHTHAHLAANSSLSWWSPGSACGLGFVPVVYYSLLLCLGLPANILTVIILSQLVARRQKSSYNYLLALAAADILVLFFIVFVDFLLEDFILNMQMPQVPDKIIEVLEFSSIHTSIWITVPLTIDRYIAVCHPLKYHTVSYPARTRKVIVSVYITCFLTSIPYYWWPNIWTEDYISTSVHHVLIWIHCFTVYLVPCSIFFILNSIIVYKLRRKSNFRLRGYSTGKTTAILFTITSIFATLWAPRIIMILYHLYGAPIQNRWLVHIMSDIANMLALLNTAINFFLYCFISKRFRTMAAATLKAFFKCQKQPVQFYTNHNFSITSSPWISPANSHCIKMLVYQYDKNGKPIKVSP
The experiment in a line: Agonist activity at human GPR139 expressed in CHO-K1 cells assessed as increase in calcium flux by calcium 5 dye based FLIPR assay. Type of assay: functional, cell-based. Background: Calcium flux is commonly read through the fluorescence of an indicator in the cells.

In assay [2] the target is T1, Probable G-protein coupled receptor 139. The experiment in a line: Agonist activity at human GPR139 expressed in CHO-K1 cells assessed as induction of beta-arrestin 2 recruitment incubated for 90 mins by PathHunter assay. Type of assay: cell-based. On the technique in general: Activated receptors often draw arrestin, which recruitment assays turn into a signal.
The target in assay [3] is T2, Probable G-protein coupled receptor 139 (Rattus norvegicus) (UniProt P0C0W8).
T2 sequence (whole entry): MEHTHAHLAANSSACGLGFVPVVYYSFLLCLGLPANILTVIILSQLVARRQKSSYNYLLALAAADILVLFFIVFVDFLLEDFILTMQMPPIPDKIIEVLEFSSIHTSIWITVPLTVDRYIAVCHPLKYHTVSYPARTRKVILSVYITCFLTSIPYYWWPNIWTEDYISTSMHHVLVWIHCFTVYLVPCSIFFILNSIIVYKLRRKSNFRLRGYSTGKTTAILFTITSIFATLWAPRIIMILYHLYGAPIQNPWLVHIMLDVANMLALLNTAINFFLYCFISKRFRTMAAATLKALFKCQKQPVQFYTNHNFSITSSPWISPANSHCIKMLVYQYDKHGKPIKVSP
The experiment in a line: Agonist activity at rat GPR139 expressed in CHO-K1 cells assessed as increase in calcium flux by calcium 5 dye based FLIPR assay relative to JNJ63533054. Type of assay: cell-based.

Assay [4] deals with T3, Probable G-protein coupled receptor 139 (Homo sapiens) (UniProt Q6DWJ6).
T3 sequence (whole entry): T1 sequence (Q6DWJ6 whole entry)
Kind of assay: Agonist activity at human GPR139 expressed in CHO-K1 cells assessed as increase in calcium flux by calcium 5 dye based FLIPR assay relative to JNJ63533054. Type of assay: functional, cell-based. The note with it: filed as agonist.

In assay [5] the target is T4, Probable G-protein coupled receptor 139 (Rattus norvegicus, UniProt P0C0W8).
T4 sequence (P0C0W8 whole entry): T2 sequence (whole entry)
Kind of assay: Agonist activity at rat GPR139 expressed in CHO-K1 cells assessed as increase in calcium flux by calcium 5 dye based FLIPR assay. Type of assay: cell-based.

The target of assay [6] is T3, Probable G-protein coupled receptor 139 (Homo sapiens). The experiment in a line: Agonist activity at human GPR139 expressed in CHO-K1 cells assessed as induction of beta-arrestin 2 recruitment incubated for 90 mins by PathHunter assay relative to JNJ63533054. Type of assay: cell-based.

A value given as a limit tells only on which side of the number the result lay.

By EC50 is commonly meant the concentration giving half of the maximal effect. In general, Emax refers to the size of the effect at its maximum, as opposed to the concentration needed.

In the case of `Cc1ccc([C@H](C)NC(=O)Cn2nc3ccccn3c2=O)cc1Cl`, the EC50 is under 1 nM in assay [1], 1 nM in assay [2] (cho-k1) and 1 nM in assay [5] (cho-k1). For the same compound, the Emax in assay [3] (filed as agonist), in assay [4] and in assay [6] (filed as agonist) was over 80% in each case.
Take `O=C(Cn1nc2ccc(F)cn2c1=O)NC1(c2ccc(Cl)cc2)CC1`: the EC50 in assay [1] (cho-k1) is 10 nM; in assay [2], at least 100 nM; in assay [5], at least 100 nM. The Emax in assay [3] is 25%; in assay [4] it was over 80%; in assay [6] it was 25%.
Consider `Cc1cc(Cl)ccc1[C@H](C)NC(=O)Cn1nc2ccccn2c1=O`, for which the EC50 in assay [1] (cho-k1), in assay [2] (cho-k1) and in assay [5] (cho-k1) was 1 nM each time. The Emax in assay [3] (filed as agonist) is 50%; in assay [4], over 80%; in assay [6] (filed as agonist) it was over 80%.
As to `Cc1ccc2nn(CC(=O)N[C@@H](C)c3ccc(Cl)c(F)c3)c(=O)n2n1`, the EC50 in assay [1] is under 1 nM; in assay [2] (cho-k1), 10 nM; in assay [5], under 1 nM. Besides, the Emax in assay [3] (filed as agonist) was over 80%; in assay [4], over 80%; in assay [6] (filed as agonist), 50%.
`COc1ccn2c(=O)n(CC(=O)N[C@@H](C)c3ccc(Cl)c(F)c3)nc2n1`: the EC50 in assay [1] was under 1 nM; in assay [2] (cho-k1), 1 nM; in assay [5], under 1 nM. In addition, the Emax in assay [3] (filed as agonist), in assay [4] and in assay [6] (filed as agonist) was over 80% throughout.
`C[C@H](NC(=O)Cn1nc2cc(N3CCN(C)CC3)ccn2c1=O)c1ccc(OC(F)(F)F)cc1`: the EC50 in assay [1], in assay [2] and in assay [5] was at least 100 nM in each case. The results for the Emax in assay [3] (filed as agonist), in assay [4] and in assay [6] were 50%, 50% and 25%, respectively.
`Cc1ccc([C@H](C)NC(=O)Cn2nc3cccnn3c2=O)cc1`: the figures for the EC50 in assay [1] (cho-k1), in assay [2] and in assay [5] (cho-k1) were 10 nM, at least 100 nM and 1 nM, respectively. Moreover, the Emax was 50% in assay [3] (filed as agonist), over 80% in assay [4] and 25% in assay [6].
With `O=C(Cn1nc2ccc(F)cn2c1=O)NC1(c2cccc(Cl)c2)CC1`, the EC50 in assay [1], in assay [2] and in assay [5] was at least 100 nM throughout. For the same compound, the Emax in assay [3] (filed as agonist) is 50%; in assay [4], over 80%; in assay [6], 25%.
On to `COc1ccc2nn(CC(=O)N[C@@H](C)c3ccc(Cl)cc3)c(=O)n2n1`, for which the EC50 in assay [1] is under 1 nM; in assay [2], under 1 nM; in assay [5], at least 100 nM. Further, the Emax in assay [3] was 25%; in assay [4] it was over 80%; in assay [6], 25%.
Turning to `C[C@@H](NC(=O)Cn1nc2ccccn2c1=O)c1ccc(Cl)c(F)c1`, the results for the EC50 in assay [1], in assay [2] and in assay [5] were at least 100 nM, at least 100 nM and under 1 nM, respectively. Besides, the values for the Emax in assay [3] (filed as agonist), in assay [4] and in assay [6] were 50%, over 80% and 25%, respectively.
`C[C@H](NC(=O)Cn1nc2cccnn2c1=O)c1ccc(C2CC2)c(F)c1`: the EC50 in assay [1] (cho-k1) is 1 nM; in assay [2], at least 100 nM; in assay [5] (cho-k1) it was 1 nM. Further, the Emax in assay [3] (filed as agonist) is 50%; in assay [4] it was over 80%; in assay [6] (filed as agonist), 50%.
With `Cc1ccc([C@H](C)NC(=O)Cn2nc3ccc(F)cn3c2=O)cc1F`, the values for the EC50 in assay [1], in assay [2] (cho-k1) and in assay [5] were under 1 nM, 1 nM and under 1 nM, respectively. In addition, the Emax in assay [3] (filed as agonist) is 50%; in assay [4], over 80%; in assay [6] (filed as agonist) it was 50%.
As for `C[C@H](NC(=O)Cn1nc2cc(N3CCOCC3)cnn2c1=O)c1ccc(Cl)c(F)c1`, the EC50 in assay [1] (cho-k1) was 1 nM; in assay [2], at least 100 nM; in assay [5] (cho-k1), 1 nM. The maximal response (Emax) is over 80% in assay [3] (filed as agonist), over 80% in assay [4] and 25% in assay [6].
In the case of `Cc1ccc([C@H](C)NC(=O)Cn2nc3c(NCC(F)F)cccn3c2=O)cc1`, the EC50 in assay [1], in assay [2] and in assay [5] was under 1 nM in each case. The Emax in assay [3] (filed as agonist) was over 80%; in assay [4], over 80%; in assay [6] (filed as agonist) it was 50%.
Consider `Cc1cnc2nn(CC(=O)N[C@@H](C)c3ccc(OC(F)(F)F)c(F)c3)c(=O)n2c1`, for which the EC50 in assay [1] (cho-k1) turned out to be 1 nM; in assay [2] (cho-k1), 1 nM; in assay [5] (cho-k1), 10 nM. Also, the Emax in assay [3] is 25%; in assay [4] it was over 80%; in assay [6] (filed as agonist) it was 50%.
Consider `COc1ccc2nn(CC(=O)N[C@@H](C)c3ccc(OC(F)(F)F)cc3)c(=O)n2c1`, for which the EC50 in assay [1] is under 1 nM; in assay [2] it was under 1 nM; in assay [5] (cho-k1), 1 nM. The Emax in assay [3] (filed as agonist) came out at 25%; in assay [4], 50%; in assay [6] (filed as agonist) it was 50%.
Turning to `COc1cccc2nn(CC(=O)N[C@@H](C)c3ccc(C)cc3)c(=O)n12`, the EC50 in assay [1] is under 1 nM; in assay [2] (cho-k1) it was 1 nM; in assay [5] (cho-k1), 1 nM. The Emax in assay [3] (filed as agonist) is 50%; in assay [4], over 80%; in assay [6] it was 25%.
On to `C[C@H](NC(=O)Cn1nc2cc(N3CCC(O)CC3)ccn2c1=O)c1ccc(OC(F)(F)F)cc1`, for which the EC50 in assay [1] (cho-k1) was 1 nM; in assay [2], at least 100 nM; in assay [5] (cho-k1), 1 nM. The values for the maximum response (Emax) in assay [3] (filed as agonist), in assay [4] and in assay [6] were over 80%, over 80% and 25%, respectively.
For `CC(NC(=O)Cn1nc2ccccn2c1=O)c1ncc(Cl)cc1F` (stereo not drawn), the EC50 in assay [1], in assay [2] and in assay [5] was at least 100 nM in each case. Moreover, the Emax in assay [3] is under 25%; in assay [4] it was 50%; in assay [6], 25%.
Regarding `C[C@H](NC(=O)Cn1nc2cccnn2c1=O)c1ccc(Cl)c(Cl)c1`, the EC50 in assay [1] (cho-k1) turned out to be 1 nM; in assay [2] (cho-k1) it was 10 nM; in assay [5] (cho-k1), 1 nM. Further, the Emax in assay [3] (filed as agonist) was 50%; in assay [4], over 80%; in assay [6] (filed as agonist), 50%.
As to `COc1cccc2nn(CC(=O)N[C@@H](C)c3ccc(OC(F)(F)F)cc3)c(=O)n12`, the EC50 in assay [1] is under 1 nM; in assay [2] (cho-k1), 1 nM; in assay [5] (cho-k1) it was 1 nM. The Emax is 50% in assay [3] (filed as agonist), over 80% in assay [4] and over 80% in assay [6] (filed as agonist).
For the compound `COc1ccn2c(=O)n(CC(=O)N[C@@H](C)c3ccc(C)cc3)nc2c1`, the EC50 in assay [1] was under 1 nM; in assay [2] (cho-k1), 1 nM; in assay [5], under 1 nM. The Emax was 50% in assay [3] (filed as agonist), over 80% in assay [4] and 50% in assay [6] (filed as agonist).
As to `C[C@H](NC(=O)Cn1nc2ccccn2c1=O)c1ccc(F)cc1`, the figures for the EC50 in assay [1] (cho-k1), in assay [2] and in assay [5] were 10 nM, at least 100 nM and at least 100 nM, respectively. In addition, the Emax in assay [3] is 25%; in assay [4] it was 50%; in assay [6], under 25%.
Take `C[C@H](NC(=O)Cn1nc2cc(NC3COC3)ccn2c1=O)c1ccc(Cl)c(F)c1`: the concentration for a half-maximal effect (EC50) is 1 nM in assay [1] (cho-k1), 1 nM in assay [2] (cho-k1) and under 1 nM in assay [5]. The Emax in assay [3] (filed as agonist), in assay [4] and in assay [6] (filed as agonist) was over 80% each time.
With `C[C@H](NC(=O)Cn1nc2ncccn2c1=O)c1ccc(Cl)c(F)c1`, the EC50 in assay [1] (cho-k1) is 1 nM; in assay [2] it was at least 100 nM; in assay [5] (cho-k1), 1 nM. The Emax is 50% in assay [3] (filed as agonist), over 80% in assay [4] and 50% in assay [6] (filed as agonist).
As for `C[C@H](NC(=O)Cn1nc2ncc(C3CC3)cn2c1=O)c1ccc(Cl)c(F)c1`, the EC50 was under 1 nM in assay [1], 1 nM in assay [2] (cho-k1) and 10 nM in assay [5] (cho-k1). For the same compound, the Emax was 50% in assay [3] (filed as agonist), over 80% in assay [4] and 50% in assay [6] (filed as agonist).
With `Cc1ccc([C@H](C)NC(=O)Cn2nc3cc(C)ccn3c2=O)cc1`, the EC50 was under 1 nM in assay [1], 1 nM in assay [2] (cho-k1) and under 1 nM in assay [5]. The Emax is 50% in assay [3] (filed as agonist), over 80% in assay [4] and 50% in assay [6] (filed as agonist).
For the compound `Cc1ccc2nn(CC(=O)N[C@@H](C)c3ccc(Cl)cc3)c(=O)n2n1`, the EC50 in assay [1] (cho-k1), in assay [2] (cho-k1) and in assay [5] (cho-k1) was 1 nM each time. Further, the Emax in assay [3] (filed as agonist) is 50%; in assay [4] it was over 80%; in assay [6], 25%.
